From patent US11000033B2, “Ketone or oxime compound, and herbicide” (NISSAN CHEMICAL CORPORATION, priority 2014, dated 2021) come the findings set out here.

Common to all, as to type: in vivo
The subject of series [1] is Scirpus juncoides. In words: Test Example 1: herbicidal activity, application before weed generation in submerged conditions (symbol B). The note with it: application herbicide amount 320 g/ha. Summed up: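 Steps: alluvial soil flooded to 4 cm; weed seeds sown together; rice seedlings (2.5 leaf) transplanted; diluted emulsion applied to water surface the same day as sowing; plants grown at 25–30 °C in greenhouse; herbicidal effect rated on a 0–5 scale at 3 weeks.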

In series [2] the test system is Echinochloa oryzacola Vasing. In words: Test Example 2: herbicidal activity, application during weed generation in submerged conditions (symbol A). The note with it: Table 23; application herbicide amount 320 g/ha; grade 0-5 by criteria of Test Example 1. Summed up:
(§1)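 Submerged alluvial soil (4 cm) sown with mixed seed; greenhouse 25–30° C. 1–2 leaf: diluted emulsion onto water surface, preset dose. Visual score, 3 wk.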

For series [3], the system named is Scirpus juncoides. Description: Test Example 2: herbicidal activity, application during weed generation in submerged conditions (symbol B). Particulars: Table 23; application herbicide amount 320 g/ha; grade 0-5 by criteria of Test Example 1. Summed up:
as §1

In another series the test system is Cyperus difformis. In words: Test Example 3: herbicidal effect by foliage application, Wagner pot (symbol E). The note with it: application herbicide amount 320 g/ha. Summed up:
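Steps: fill pot with alluvial soil; add water to 0.1–0.5 cm depth; sow weed and rice seed; grow 14 days at 25–30 °C; spray diluted emulsion over the leaves; rate effect after 3 weeks.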

The subject of a further series is Stellaria media. In words: Test Example 4: herbicidal effect by soil treatment (symbol P). Particulars: application herbicide amount 320 g/ha. Summed up:
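Seeds were sown in sterilized diluvial soil, covered with about 1.5 cm of soil, and the soil surface was sprayed with a water-diluted emulsion of the compound at a predetermined rate. Plants grew in a greenhouse at 25° C. to 30° C.; effects were scored visually 3 weeks after application.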

A further series has as its system corn. Description: Test Example 4: effect on crop by soil treatment (symbol c). Particulars: application herbicide amount 320 g/ha. Summed up:
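Soil-treatment setup: crop and weed seeds were spot-sown into sterilized diluvial soil, then buried beneath approximately 1.5 cm of it, and the boxes were housed in a 25–30° C. greenhouse.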

In the next series the test system is Amaranthus retroflexus. In words: Test Example 5: herbicidal effect by foliage application, plastic box (symbol N). The note with it: 320 g/ha, 3 weeks after application. Summed up:
(§2)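 Greenhouse foliar test: seedlings at 14 days, grown 25° C. to 30° C. in sterilized diluvial soil; compound applied as an aqueous dilution of an emulsion; response read 3 weeks after spraying.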

Another series relates to Galium spurium. In words: Test Example 5: herbicidal effect by foliage application, plastic box (symbol Q). The note with it: 320 g/ha, 3 weeks after application. Summed up: as §2
The test system of another series is Veronica persica. In words: Test Example 5: herbicidal effect by foliage application, plastic box (symbol R). The note with it: 320 g/ha, 3 weeks after application. Summed up: as §2
For the next series, the system named is soybean. Description: Test Example 5: effect on crop by foliage application, plastic box (symbol d). The note with it: 320 g/ha, 3 weeks after application. Summed up: (§3)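 In a plastic box 7 cm deep filled with sterilized diluvial soil, seeds of crops and weeds such as Digitaria ciliaris, Avena fatua and Amaranthus retroflexus are sown in spots and covered with about 1.5 cm of soil before greenhouse growth at 25–30° C.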

A further series relates to rice plant. In words: Test Example 5: effect on crop by foliage application, plastic box (symbol b). Particulars: 320 g/ha, 3 weeks after application. Summed up: as §3
In another series the test system is wheat. Description: Test Example 5: effect on crop by foliage application, plastic box (symbol e). The note with it: 320 g/ha, 3 weeks after application. Summed up:
as §3

`COc1cc(C)c(C2=C(O)CC(CC(C)=O)C2=O)c(C)c1` (stereo not drawn) [7-020]: the “Herbicidal effect grade, B: Scirpus juncoides” value (“Herbicidal effect grade, B” below) with Scirpus juncoides [1] and in the series on Scirpus juncoides [3] was 0 (Herbicidal ratio of 5% or lower (almost no effect)) in each case. In series [2], the “Herbicidal effect grade, A: Echinochloa oryzacola Vasing.” value was 1 (Herbicidal ratio of 5% or higher and lower than 20%). Also, the “herbicidal effect on E, grade 0-5” value in the series on Cyperus difformis was 3 (Herbicidal ratio of 40% or higher and lower than 70%). For the same molecule, the “Herbicidal effect grade, P: Stellaria media” value (“Herbicidal effect grade, P” below) in the series with Stellaria media is on record as 0 (Herbicidal ratio of 5% or lower (almost no effect)). Also, in the series with corn, the “Effect on crop grade, c: corn” value was 0 (Herbicidal ratio of 5% or lower (almost no effect)). Moreover, the “N: Amaranthus retroflexus, herbicidal effect (criteria of Test Example 1)” value (from here on “N: Amaranthus retroflexus”) with Amaranthus retroflexus is reported as 0 (Herbicidal ratio of 5% or lower (almost no effect)). Further, the “Q: Galium spurium, herbicidal effect (criteria of Test Example 1)” value (shortened to “Q: Galium spurium, herbicidal effect”) in the series on Galium spurium is on record as 0 (Herbicidal ratio of 5% or lower (almost no effect)). Also, the “R: Veronica persica, herbicidal effect (criteria of Test Example 1)” value (from here on “R: Veronica persica, herbicidal effect”) in the series on Veronica persica is given as 0 (Herbicidal ratio of 5% or lower (almost no effect)). For the same molecule, the “d: soybean, effect on crop (criteria of Test Example 1)” value (shortened to “d: soybean, effect on crop”) in the series on soybean is 0 (Herbicidal ratio of 5% or lower (almost no effect)). Also, the “b: directly sowed rice plant, effect on crop (criteria of Test Example 1)” value (“b: directly sowed rice plant, effect” below) with rice plant was 3 (Herbicidal ratio of 40% or higher and lower than 70%). Also, the “e: wheat, effect on crop (criteria of Test Example 1)” value (“e: wheat, effect on crop” below) with wheat was 0 (Herbicidal ratio of 5% or lower (almost no effect)).
With `CON=C(C)CC1CC(OC(=O)N(C)C)=C(c2c(C)cc(-c3ccc(Cl)cc3)cc2C)C1=O` (mixture of isomers) [6-063], the “Herbicidal effect grade, B” value in the series with Scirpus juncoides [1] is 2 (Herbicidal ratio of 20% or higher and lower than 40%); in the series with Scirpus juncoides [3] it was 3 (Herbicidal ratio of 40% or higher and lower than 70%). Further, the “Herbicidal effect grade, A: Echinochloa oryzacola Vasing.” value in series [2] is 2 (Herbicidal ratio of 20% or higher and lower than 40%). Besides, the “herbicidal effect on E, grade 0-5” value in the series with Cyperus difformis is 1 (Herbicidal ratio of 5% or higher and lower than 20%). The “P: Stellaria media, herbicidal effect grade” value with Stellaria media is 0 (Herbicidal ratio of 5% or lower (almost no effect)). Besides, the “c: corn, effect on crop grade” value with corn was 0 (Herbicidal ratio of 5% or lower (almost no effect)). In addition, the “N: Amaranthus retroflexus” value in the series with Amaranthus retroflexus is on record as 0 (Herbicidal ratio of 5% or lower (almost no effect)). Further, the “Q: Galium spurium, herbicidal effect” value with Galium spurium was 3 (Herbicidal ratio of 40% or higher and lower than 70%). Besides, the “R: Veronica persica, herbicidal effect” value in the series on Veronica persica is on record as 0 (Herbicidal ratio of 5% or lower (almost no effect)). The “d: soybean, effect on crop” value in the series with soybean is 0 (Herbicidal ratio of 5% or lower (almost no effect)). Further, the “b: directly sowed rice plant, effect” value with rice plant is 3 (Herbicidal ratio of 40% or higher and lower than 70%). In addition, in the series on wheat, the “e: wheat, effect on crop” value was 4 (Herbicidal ratio of 70% or higher and lower than 90%).
For the molecule `CON=C(C)CC1CC(O)=C(c2c(C)cc(Br)cc2OC)C1=O` (stereo not drawn) [6-076, 2-(4-bromo-2-methoxy-6-methylphenyl)-3-hydroxy-5-{2-(methoxyimino)propyl}cyclopent-2-enone], the “Herbicidal effect grade, B” value in the series with Scirpus juncoides [1] is 3 (Herbicidal ratio of 40% or higher and lower than 70%); with Scirpus juncoides [3] it was 1 (Herbicidal ratio of 5% or higher and lower than 20%). For the same molecule, the “Herbicidal effect grade, A: Echinochloa oryzacola Vasing.” value in [2] is 5 (Herbicidal ratio of 90% or more (almost completely withered)). In addition, in the series with Cyperus difformis, the “herbicidal effect on E, grade 0-5” value is 5 (Herbicidal ratio of 90% or more (almost completely withered)). For the same molecule, in the series on Stellaria media, the “P: Stellaria media, herbicidal effect grade” value was 0 (Herbicidal ratio of 5% or lower (almost no effect)). Besides, the “c: corn, effect on crop grade” value in the series on corn is listed as 5 (Herbicidal ratio of 90% or more (almost completely withered)). In addition, in the series with Amaranthus retroflexus, the “N: Amaranthus retroflexus” value was 1 (Herbicidal ratio of 5% or higher and lower than 20%). Further, the “Q: Galium spurium, herbicidal effect” value in the series on Galium spurium was 3 (Herbicidal ratio of 40% or higher and lower than 70%). Further, the “R: Veronica persica, herbicidal effect” value in the series with Veronica persica is 2 (Herbicidal ratio of 20% or higher and lower than 40%). Also, the “d: soybean, effect on crop” value in the series on soybean is 1 (Herbicidal ratio of 5% or higher and lower than 20%). In the series on rice plant, the “b: directly sowed rice plant, effect” value is recorded as 5 (Herbicidal ratio of 90% or more (almost completely withered)). Further, the “e: wheat, effect on crop” value in the series with wheat was 5 (Herbicidal ratio of 90% or more (almost completely withered)).
For `CON=C(C)CC1CC(O)=C(c2c(C)cc(-c3ccc(Cl)cc3Cl)cc2C)C1=O` (stereo not drawn) [6-088], the “Herbicidal effect grade, B” value in the series with Scirpus juncoides [1] is 1 (Herbicidal ratio of 5% or higher and lower than 20%); in the series on Scirpus juncoides [3], 2 (Herbicidal ratio of 20% or higher and lower than 40%). In [2], the “Herbicidal effect grade, A: Echinochloa oryzacola Vasing.” value is 4 (Herbicidal ratio of 70% or higher and lower than 90%). Also, the “herbicidal effect on E, grade 0-5” value in the series with Cyperus difformis is on record as 5 (Herbicidal ratio of 90% or more (almost completely withered)). Further, the “Herbicidal effect grade, P” value in the series with Stellaria media is reported as 5 (Herbicidal ratio of 90% or more (almost completely withered)). The “Effect on crop grade, c: corn” value with corn is recorded as 0 (Herbicidal ratio of 5% or lower (almost no effect)). Further, in the series with Amaranthus retroflexus, the “N: Amaranthus retroflexus” value is reported as 0 (Herbicidal ratio of 5% or lower (almost no effect)). In the series with Galium spurium, the “Q: Galium spurium, herbicidal effect” value was 4 (Herbicidal ratio of 70% or higher and lower than 90%). The “R: Veronica persica, herbicidal effect” value in the series on Veronica persica is listed as 5 (Herbicidal ratio of 90% or more (almost completely withered)). Also, the “d: soybean, effect on crop” value in the series with soybean is 5 (Herbicidal ratio of 90% or more (almost completely withered)). In addition, the “b: directly sowed rice plant, effect” value in the series on rice plant was 5 (Herbicidal ratio of 90% or more (almost completely withered)). The “e: wheat, effect on crop” value in the series on wheat is 4 (Herbicidal ratio of 70% or higher and lower than 90%).
Take `CON=C(C)CC1CC(O)=C(c2c(C)cc(-c3ccc(F)c(Cl)c3)cc2C)C1=O` (stereo not drawn) [6-085]: the “Herbicidal effect grade, B” value is 3 (Herbicidal ratio of 40% or higher and lower than 70%) in the series on Scirpus juncoides [1]; 4 (Herbicidal ratio of 70% or higher and lower than 90%) in the series with Scirpus juncoides [3]. In addition, the “Herbicidal effect grade, A: Echinochloa oryzacola Vasing.” value in [2] is reported as 5 (Herbicidal ratio of 90% or more (almost completely withered)). For the same molecule, the “herbicidal effect on E, grade 0-5” value in the series with Cyperus difformis is recorded as 5 (Herbicidal ratio of 90% or more (almost completely withered)). Moreover, in the series with Stellaria media, the “Herbicidal effect grade, P” value is 5 (Herbicidal ratio of 90% or more (almost completely withered)). In addition, the “Effect on crop grade, c: corn” value with corn is 1 (Herbicidal ratio of 5% or higher and lower than 20%). Further, in the series with Amaranthus retroflexus, the “N: Amaranthus retroflexus” value was 3 (Herbicidal ratio of 40% or higher and lower than 70%). Also, the “Q: Galium spurium, herbicidal effect” value with Galium spurium was 4 (Herbicidal ratio of 70% or higher and lower than 90%). The “R: Veronica persica, herbicidal effect” value with Veronica persica is 4 (Herbicidal ratio of 70% or higher and lower than 90%). Also, the “d: soybean, effect on crop” value with soybean is on record as 5 (Herbicidal ratio of 90% or more (almost completely withered)). In addition, the “b: directly sowed rice plant, effect” value with rice plant is given as 5 (Herbicidal ratio of 90% or more (almost completely withered)). For the same molecule, the “e: wheat, effect on crop” value with wheat is on record as 5 (Herbicidal ratio of 90% or more (almost completely withered)).
On to `CON=C(C)CC1CC(OC(=O)COc2ccccc2)=C(c2c(C)cc(-c3ccccc3)cc2OC)C1=O` (stereo not drawn) [6-100], for which the “Herbicidal effect grade, B” value in the series on Scirpus juncoides [1] and in the series with Scirpus juncoides [3] was 5 (Herbicidal ratio of 90% or more (almost completely withered)) throughout. For the same molecule, the “Herbicidal effect grade, A: Echinochloa oryzacola Vasing.” value in [2] is reported as 5 (Herbicidal ratio of 90% or more (almost completely withered)). Besides, in the series on Cyperus difformis, the “herbicidal effect on E, grade 0-5” value is recorded as 5 (Herbicidal ratio of 90% or more (almost completely withered)). The “Herbicidal effect grade, P” value with Stellaria media is 4 (Herbicidal ratio of 70% or higher and lower than 90%). In the series with corn, the “Effect on crop grade, c: corn” value is 4 (Herbicidal ratio of 70% or higher and lower than 90%). Also, in the series with Amaranthus retroflexus, the “N: Amaranthus retroflexus” value was 4 (Herbicidal ratio of 70% or higher and lower than 90%). Also, in the series with Galium spurium, the “Q: Galium spurium, herbicidal effect” value is 4 (Herbicidal ratio of 70% or higher and lower than 90%). For the same molecule, in the series on Veronica persica, the “R: Veronica persica, herbicidal effect” value was 3 (Herbicidal ratio of 40% or higher and lower than 70%). Besides, the “d: soybean, effect on crop” value in the series with soybean is 3 (Herbicidal ratio of 40% or higher and lower than 70%). Besides, the “b: directly sowed rice plant, effect” value in the series on rice plant is listed as 5 (Herbicidal ratio of 90% or more (almost completely withered)). Further, the “e: wheat, effect on crop” value in the series with wheat is listed as 5 (Herbicidal ratio of 90% or more (almost completely withered)).
